Results from US20250296922A1, “POLYSUBSTITUTED PYRROLIDINE DERIVATIVE, PREPARATION METHOD THEREFOR AND USE THEREOF” (SHANGHAI WENNAI THERAPEUTICS CO LTD, priority 2023, published 2025).
Like-named read-outs stand apart in the source and are kept apart here.

Legend:
[1] = Stability of the compound in liver microsomes (human); format: in vitro ADME; conditions: 1 μM compound, 0.5 mg protein/mL; for half-life at 1 μM: human, liver microsomes, read-out: Human liver microsomes T½; for half-life at 1 μM / Human liver microsomes T½: 37° C.
Description: 2.1.1. working solution: 5 μL of test or control compound stock solution (10 mM DMSO solution) was diluted with 495 μL of acetonitrile (ACN) to obtain an intermediate stock solution (100 μM, 99% ACN).
2.2.2 Preparation procedure: An appropriate amount of NADPH powder was weighed and diluted with 10 mM MgCl2 buffer (working solution concentration: 10 mM; final reaction system concentration: 1 mM).
2.3.2 Preparation procedure: The appropriate concentration of liver microsomal working solution was prepared in 100 mM potassium phosphate buffer;
Acetonitrile (ACN) solution at 4° C. containing 200 ng/mL of Tolbutamide and 200 ng/ml of labetalol as internal standards 2.5. Operation steps:
2.5.2. Diluting liver microsomes with 100 mM potassium phosphate buffer to a concentration of 0.56 mg/mL.
2.5.3. Transferring 445 μL of liver microsomal working solution (0.56 mg/mL) to pre-heated incubation plates T60 and NCF60, and then pre-heating the incubation plates T60 and NCF60 for 10 minutes at 37° C. with shaking. Transferring 54 μL of liver microsomes to each well of the blank plate, adding 6 μL of NAPDH coenzyme solution to the blank plate, and finally transferring 180 μL of termination solution to the blank plate.
2.5.4 Adding 5 μL of compound working solution (100 μM) to the incubation plates T60 and NCF60 containing liver microsomes and mixing three times.
2.5.5. Adding 50 μL of buffer to the NCF60 plate and mixing three times, starting the timer and incubating at 37° C. for 60 min with the plate shaking.
2.5.6. Adding 180 μL of quenching solution and 6 μL of NAPDH coenzyme working solution sequentially to quenching plate TO, making sure that the plate was cold to prevent volatilization of the incubation solution.
2.5.7. For plate T60, mixing well three times and immediately transferring 54 μL of mixing solution (0-min time point) to quenching plate TO, then adding 44 μL of NAPDH coenzyme working solution to incubation plate T60. Starting the timer:
2.5.8. At the 5, 15, 30, 45 and 60 minute time points, adding 180 μL of quenching solution to the quenching plate and transferring 60 μL of reaction solution from the T60 plate to the quenching plate at each time point.
2.5.9. For NCF60 plates, mixing well and transferring 60 μL of reaction solution from the NCF60 incubating solution to a quenching plate containing 180 μL of quenching solution at 60th minute.
2.5.10. All plates were mixed on a shaker for 10 min and then centrifuged at 4000 rpm at 4° C. for 20 min.
2.5.11. Transferring 80 μL of supernatant to 240 μL of HPLC water and mixing on a
2.6.1. Calculating t1/2 and Clint (mic) values based on first-order elimination kinetics: […]

[2] = Proportion of free drug in human plasma, equilibrium dialysis; format: in vitro ADME; conditions: 2 μM compound, dialysis 4 h, 37° C.
Description: On the day of the experiment, human plasma samples (purchased from Biomex) were thawed under running tap water and centrifuged at 3220 g for 5 min to remove blood clots. The pH of the resulting plasma was measured and adjusted to pH 7.4+0.1 by using 1% phosphoric acid or 1 N sodium hydroxide as required.
Pretreating the dialysis membranes according to the manufacturer's instructions: The dialysis membrane strips were soaked in ultrapure water at room temperature for approximately 1 hour. Afterwards, each membrane strip containing 2 layers of membrane was separated and soaked in ethanol: water (20:80 v: v) for approximately 20 minutes, then it was ready for use or stored at 2-8° C. (stored for up to 1 month). The membranes were rinsed and soaked in ultrapure water for 20 min before experiments.
A 10 mM DMSO solution of test compound or control warfarin was taken and diluted to 400 μM with DMSO, then 3 μl was taken and added to 597 μl of blank plasma matrix solution to obtain 2 μM of compound solution respectively. 50 μl of test compound solution or control solution was transferred to a sample collection plate with 3 replicate wells per sample. […]
Unbonded %, bonded % and recovered % were calculated using the following formulae. […]

[3] = Pharmacokinetic experiment, rat test, gavage administration; format: in vivo, SD rats; conditions: 10 mg/kg; for AUC(0-t) / Cmax: Sprague-Dawley, rat, plasma, po; for AUC(0-t): read-out: Area under the curve AUC0-t; for Cmax: read-out: blood concentration Cmax
Excerpt: 4.1.1 Abstract: SD rats were used as test animals, the LC/MS/MS method was applied to determine the drug concentration of the compounds of the Examples in plasma at different points after gavage administration to rats, to study the pharmacokinetic behavior of the compounds of the present invention in rats, and to evaluate their pharmacokinetic characteristics.
4.1.2.2 Test animals: 6 male SD rats and 6 female rats, all provided by Shanghai Jihui Laboratory Animal Breeding Co. The animals were fasted for at least 12 hours before administration and food supply was resumed 4 hours after administration.
4.1.2.3 Drug Preparation: Weighed an amount of the test compound separately and prepared a completely clear solution with a final concentration of 1 mg/mL using a mixed solvent of DMSO: Solutol: Saline (5%: 5%: 90%).
4.1.2.4 Administration: a dose of 10 mg/kg, a volume of 10 mL/kg.
4.1.3 Test operation: 0.1 mL blood samples were collected from the orbit before and 15 min, 30 min, 1 h, 2h, 4 h, 6h, 8 h, 10h, 24 h after the administration of the drug to male rats and placed in EDTA-K2 anticoagulant tubes. 0.03 mL blood samples were collected from the orbit before and 0.5h, 1 h, 2h, 3 h, 6h, 10 h and 24 h after administration to female rats. After blood samples were collected, they were placed in labelled centrifuge tubes in ice-water bath and rapidly centrifuged to separate the plasma at 4000 rpm for 10 min at 4° C. The plasma was stored at −70° C. or below for measurement.
The plasma samples were thawed at room temperature and 50 μL was added to 400 μL of acetonitrile containing the internal standard (40 ng/mL, terfenadine), vortexed for 1 min and centrifuged for 10 min at 4° C. and 15,400 g. 1 μL of the supernatant was injected for analysis.

Row | Compound | Human liver microsomes Residual (T = 60 min) [1] | half-life at 1 μM [1] | free drug proportion of in human plasma [2] | AUC(0-t) ([3]; female SD rats) | Cmax ([3]; female SD rats) | AUC(0-t) ([3]; male SD rats) | Cmax ([3]; male SD rats) | Human liver microsomes T½ [1] | Area under the curve AUC0-t ([3]; female SD rats) | blood concentration Cmax ([3]; female SD rats) | Area under the curve AUC0-t ([3]; male SD rats) | blood concentration Cmax ([3]; male SD rats)
1 | COc1c([C@H]2[C@H](C(=O)Nc3ccc[n+]([O-])c3)N[C@@](C)(C(F)(F)F)[C@H]2C)ccc(F)c1F [Compound 7, 3-((2R,3S,4S,5R)-3-(3,4-difluoro-2-methoxyphenyl)-4,5-dimethyl-5-(trifluoromethyl)pyrrolidine-2-carboxamido)pyridine 1-oxide] | 74.8% | > 2.42 h |  |  |  |  |  |  |  |  |  | 
2 | COc1c([C@H]2[C@H](C(=O)Nc3ccnc(C(N)=O)c3)O[C@@](C)(C(F)(F)F)[C@H]2C)ccc(F)c1F [VX-548, reference compound] | 70.9% | 2.2 h | 1.0% | 10900 ng·h/mL | 719 ng/mL | 1210 ng·h/mL | 385 ng/mL |  |  |  |  | 
3 | 4-((2R,3S,4S,5R)-3-(3,4-difluoro-2-(methoxy-d3)phenyl)-4,5-dimethyl-5-(trifluoromethyl) pyrrolidine-2-carboxamido)pyridinamide [Compound 11] | 60.1% |  | 1.6% |  |  |  |  | 1.59 h | 23809 ng·h/mL | 1850 ng/mL | 4656 ng·h/mL | 1006 ng/mL
4 | COc1c([C@H]2[C@H](C(=O)Nc3cccc(S(N)(=O)=O)c3)N[C@@](C)(C(F)(F)F)[C@H]2C)ccc(F)c1F [Compound 8, (2R,3S,4S,5R)-3-(3,4-difluoro-2-methoxyphenyl)-4,5-dimethyl-aza-(3-aminosulfonylphenyl)-5-(trifluoromethyl) pyrrolidine-2-carboxamide] | 80.3% |  |  |  |  |  |  | >2.42 h |  |  |  | 
